Source: PMC12040169 (PLOS Biology, 2025)

Assay: in vitro
Settings: human, hela cells, % viability

| SMILES | viability at 28.5 h, 10 µM [%] |
| --- | --- |
| Cc1ccc(C(=O)C(OC(=O)c2ccc(-c3nnc(-c4ccccc4)o3)cc2)c2ccccc2)cc1 (stereo not drawn) [CBK265177] | 82.7 |
| COc1cc(-c2nc(NC(=O)C(C)C)cc3ccccc23)cc(OC)c1OC [CBK085741] | 106 |
| COc1ccc(C2(C(=O)NCc3c(F)cccc3F)CC2)cc1 [CBK149826] | 108 |
| CC(C)[C@H]1CN(Cc2ccco2)CCN1C(=O)N1CCOCC1 [CBK284273] | 82.2 |
| Cc1cc(C)c2nonc2c1S(=O)(=O)NCCN1CCCCC1CO (stereo not drawn) [CBK306966] | 94.8 |
| Cc1ccn(-c2ccc(N3CCNCC3)nn2)n1 [CBK304680] | 97.4 |
| Cc1cc(C)n(CC(=O)Nc2nc(CN3CCC(C)CC3)cs2)n1 [CBK305592] | 101 |
| C=CCn1c(Cc2csc(NC(=O)c3cccc(NC(C)=O)c3)n2)n[nH]c1=S [CBK297891] | 83.4 |
| CCN(CC)C(=O)c1ccc(NS(=O)(=O)c2cccc(Cl)c2C)cc1 [CBK034393] | 108 |
| O=C(c1ccc2ncsc2c1)N1CCN(S(=O)(=O)c2ccc(C(F)(F)F)cc2)CC1 [CBK295285] | 98.2 |
| Cc1cc(C)c(S(=O)(=O)Nc2ccc(S(=O)(=O)Nc3ccc(Cl)cc3Cl)cc2)c(C)c1 [CBK266022] | 109 |
| Cc1cccc(C(C)(C)C)c1NC(=O)NCCc1cccs1 [CBK044530] | 98.9 |
| Cc1ccc(CNC(=O)Cc2csc(N3CCCC3=O)n2)n1C [CBK305642] | 98.6 |
| O=C(Cc1cccc2ccccc12)NC(NC(=S)Nc1ccccc1Br)C(Cl)(Cl)Cl (stereo not drawn) [CBK261094] | 106 |
| S=C(Nc1ccc(Nc2ccccc2)cc1)N1CCN(C/C=C/c2ccccc2)CC1 [CBK266149] | 102 |
| CC(c1ccccc1)N(C)C(=O)Cn1c(-c2cccs2)n[nH]c1=S (stereo not drawn) [CBK296718] | 95.6 |
| Oc1ccc(/C=N/Nc2nnc(-c3ccccc3)c(-c3ccccc3)n2)cc1 [CBK262011] | 112 |
| CS(=O)(=O)c1ccc(-c2ccc3c(c2)COC(C2CCN(C(=O)OCc4ccccc4)CC2)O3)cc1 (stereo not drawn) [CBK144643] | 87.9 |
| COc1ccc(Cn2nc(N)c3ccccc32)cc1 [CBK093530] | 93.3 |
| COc1cc2c(cc1OC)C1(CCN(CCc3c[nH]c4ccccc34)CC1)NC(=O)C2 [CBK039992] | 99.3 |
| O=C1CCC(=O)N1CCn1c(=O)n(S(=O)(=O)c2ccc(-c3ccccc3)cc2)c2ccccc21 [CBK106494] | 112 |
| CCn1c(SCC(=O)Nc2ccc(OC)c(Cl)c2)nnc1-c1ccccc1O [CBK268021] | 101 |

| SMILES | viability at 28.5 h, 10 µM [%] |
| --- | --- |
| COC(=O)c1ccc(NC(=O)CNc2ccccc2)cc1 [CBK268064] | 110 |
| O=C(Cn1nnc(-c2ccc(CN3CCOCC3)cc2)n1)Nc1ccc(Br)cc1 [CBK127364] | 94.1 |
| CCOC(=O)C1CCCN(Cc2cccc(Cl)c2Cl)C1 (stereo not drawn) [CBK307056] | 85.2 |
| CCCOC1CCCN(C(=O)c2cncc(F)c2)C1 (stereo not drawn) [CBK304623] | 95 |
| CC(C)(CNC(=O)Cn1cc(C(=O)Nc2ccc(F)cc2)ccc1=O)c1cccc(F)c1 [CBK286079] | 99.6 |
| O=C(Nc1ccc2ncccc2c1)c1ccoc1 [CBK159823] | 95.8 |
| CCCc1nc(NC(C)=O)c(C#N)c(-c2ccco2)c1CC [CBK018074] | 100 |
| CC(=O)Nc1ccc(C(=O)NC(c2cccs2)C2CCCC2)cc1 (stereo not drawn) [CBK297777] | 84.1 |
| CCOC(=O)CNS(=O)(=O)c1cc(Cl)sc1Cl [CBK034431] | 113 |
| Cc1ccc2oc(C(=O)N3CCC(Oc4cccnc4)CC3)cc2c1 [CBK281498] | 106 |
| O=C(CCCn1c(=O)[nH]c2ccsc2c1=O)Nc1ccc(F)cc1 [CBK287769] | 93.3 |
| CC(=O)NCCSc1nc2ccccc2nc1C(F)(F)F [CBK105303] | 89.6 |
| COc1cccc(C(=O)Nc2cc(C)c3c(=O)oc4ccccc4c3n2)c1OC [CBK287437] | 106 |
| COC(=O)c1cccc2c(C)c(C)[nH]c12 [CBK001563] | 97.4 |
| Cc1cc(CNCc2c(C(C)C)nn(C)c2N(C)C)no1 [CBK304855] | 97 |
| CC1=C[C@@H](CNC(=O)c2ccccn2)[C@H](C(C)C)C[C@H]1CC(=O)N1CCCC1 [CBK289207] | 86.5 |
| O=C(CSCc1ccc(Cl)cc1Cl)Nc1c[nH]c(=O)[nH]c1=O [CBK126912] | 90.4 |
| Cc1cc(C)c2c(C(C)(C)C)nn(-c3ccc(C(=O)O)cc3)c2n1 [CBK267481] | 88.4 |
| CCC(=O)Nc1ccc(-c2csc(N3CCCC(C)C3)n2)cc1 (stereo not drawn) [CBK306478] | 83.3 |
| CC(=O)NCCSc1nccnc1NC(C)C [CBK105289] | 92.8 |
| O=C(NC(c1cccc([N+](=O)[O-])c1)c1cc(Cl)c2cccnc2c1O)c1cccnc1 (stereo not drawn) [CBK263987] | 92.5 |
| CN1CCN(C(=O)c2nc(SCc3ccccc3)ncc2Cl)CC1 [CBK269003] | 86.7 |

| SMILES | viability at 28.5 h, 10 µM [%] |
| --- | --- |
| COc1ccc(-c2cc(C(=O)NCC(O)CO)cnc2-c2ccc(Cl)cc2)cn1 (stereo not drawn) [CBK036645] | 94 |
| CN(C)c1ccc(-c2nccnc2NS(=O)(=O)c2cccs2)cc1 [CBK050804] | 90.5 |
| Cc1ccc(-n2c(C)c([N+](=O)[O-])c3ccc(O)cc32)cc1 [CBK094246] | 86.2 |
| CN(c1ccc(C(=O)Nc2ccc(S(=O)(=O)N3CCCC3)cc2)cc1)S(=O)(=O)c1ccccc1 [CBK266896] | 102 |
| O=C(Nc1sc2c(c1C(=O)NCc1ccco1)CCCC2)c1sc2ccccc2c1Cl [CBK265086] | 92.1 |
| O=[N+]([O-])c1cc(S(=O)(=O)Nc2ccccc2)ccc1N1CCN2CCCC2C1 (stereo not drawn) [CBK001248] | 87.7 |
| COc1ccc(-c2nc(NC(=O)c3ccncc3)cnc2-c2ccc(F)c(Cl)c2)cc1 [CBK036663] | 88.6 |
| NS(=O)(=O)c1ccc(NC(=O)/C=C/c2cccc([N+](=O)[O-])c2)cc1 [CBK261616] | 99.5 |
| CCCn1nc(C)c(-c2cncn2CCCN2CCCCC2)c1C [CBK281496] | 100 |
| O=C(O)c1ccsc1NS(=O)(=O)c1ccc(Oc2ccccc2)cc1 [CBK042259] | 89.8 |
| Cc1nn(C)c(C)c1CCC(=O)NCC1CN(c2ccccc2)CCO1 (stereo not drawn) [CBK307199] | 103 |
| Cc1cc(C)nc(N2CCC(CC(=O)N(C)CC(C)c3ccccc3)CC2)n1 (stereo not drawn) [CBK286105] | 83.5 |
| O=[N+]([O-])c1ccc(CN2CCC(Oc3cncc(OCc4ccc(Cl)c(Cl)c4)n3)C2)cc1 (stereo not drawn) [CBK084426] | 97.1 |
| CSc1sc(C(=O)NC(=O)N2CCOCC2)c2c1-c1nocc1CC2 [CBK018284] | 74.3 |
| O=C(c1ccco1)c1coc2ccc(O)cc12 [CBK115570] | 113 |
| CSc1ccccc1C(=O)NCCN(C)C [CBK269757] | 90.9 |
| CS(=O)(=O)Nc1ccc2cc(-c3ccc(Oc4ccccc4)cc3)cnc2n1 [CBK085674] | 98 |
| COC(=O)c1cn([C@H]2CO[C@H]3[C@@H]2OC[C@@H]3NC(=O)Nc2cccc(C(F)(F)F)c2)nn1 [CBK289501] | 78.9 |
| CCOc1cc(S(=O)(=O)NCc2ccccn2)ccc1Cl [CBK266817] | 99.2 |
| O=C1NC2(CCC(=O)N(Cc3ccccc3)CC2)Nc2ccccc21 (stereo not drawn) [CBK284439] | 89.8 |
| Cc1cc(-c2ccccc2)sc1C(=O)/C=C(\O)C(=O)O [CBK263198] | 100 |
| CCC1=NN2C(=N)/C(=C/c3ccc(OC)cc3)C(=O)N=C2S1 [CBK101905] | 95.6 |

| SMILES | viability at 28.5 h, 10 µM [%] |
| --- | --- |
| COc1ccc(C(C)C)cc1-c1cncc(N(C)CCN(C)C)n1 [CBK065364] | 105 |
| Cc1ccc(C(=O)COC(=O)CCN2C(=O)C3C4CCC(C4)C3C2=O)cc1[N+](=O)[O-] (stereo not drawn) [CBK264096] | 91.5 |
| CN1C(=O)COc2ccccc2CCCC[C@@H]2[C@H]1CCCN2C(=O)CNS(C)(=O)=O [CBK292118] | 113 |
| CC1CCc2sc3ncnc(N4CCN(CCOC(c5ccccc5)c5ccccc5)CC4)c3c2C1 (stereo not drawn) [CBK264884] | 86.6 |
| Oc1nc(CSc2nnc(-c3ccncc3)n2-c2ccccc2)nc2ccccc12 [CBK264851] | 97.5 |
| O=C(Nc1ccc(S(=O)(=O)N2CCCC2)cc1)c1ccc(COc2ccc3c(c2)CCC3)o1 [CBK265847] | 89.1 |
| O=S(=O)(Nc1ccc2[nH]ccc2c1)c1cc(C(F)(F)F)cc(C(F)(F)F)c1 [CBK156330] | 102 |
| CCCCOc1ccc2c(C(F)(F)F)cc(=O)oc2c1 [CBK097821] | 104 |
| CS(=O)(=O)N1CCc2cc(-c3cn4ccccc4n3)ccc21 [CBK285190] | 85.6 |
| CCNS(=O)(=O)c1ccc(NC(=O)c2cc(-c3ccccn3)nc3c(C)c(C)ccc23)cc1 [CBK267733] | 97.3 |
| CC(=O)Nc1ccc(C(=O)CSc2nc(-c3ccccc3)c(-c3ccccc3)o2)cc1 [CBK266168] | 87.6 |
| C=CCn1c(SC(C)C(=O)O)nnc1-c1ccc(OC)cc1 (stereo not drawn) [CBK268958] | 91.1 |
| Cc1nn(C)cc1CN(Cc1ccc(F)cc1)CC1CCCO1 (stereo not drawn) [CBK282472] | 98.5 |
| O=C(O)CCC(=O)Nc1ccc(Br)cc1C(=O)c1ccccc1 [CBK262610] | 114 |
| Cc1ccn(CCC(=O)N2CCC[C@@H]3NC(=O)c4ccccc4OCC/C=C/C[C@@H]32)n1 [CBK292082] | 109 |
| NS(=O)(=O)c1ccc(CCNC(=O)c2cccnc2)cc1 [CBK268158] | 102 |
| COc1nccc(N2CCC3(CCC(=O)N(CCO)C3)CC2)c1C#N [CBK307255] | 117 |
| c1ccc(-c2cn3ccnc3c(NCC3CCOCC3)n2)cc1 [CBK037356] | 99.1 |
| COc1ccc([N+](=O)[O-])cc1COc1ccc2ccc(=O)oc2c1 [CBK264597] | 106 |
| CC(=O)Nc1cccc(NC(=S)Nc2ccc(S(N)(=O)=O)cc2)c1 [CBK267091] | 98.4 |
| Nc1c(C(=O)O)nnn1Cc1ccccc1 [CBK263796] | 95.6 |
